Experimental data published in US20260027071A1, “COMPOSITION FOR PROMOTING COLLAGEN PRODUCTION COMPRISING AMIDATED AMINO ACID” (KYUNGPOOK NATIONAL UNIVERSITY INDUSTRY-ACADEMIC COOPERATION …, priority 2022, published 2026).
“Also recorded” adds a separate entry of the source.

What was measured:
[1] = test system: Human dermal fibroblasts (HDF); test: Collagen protein in conditioned media (Sircol Collagen Assay) of human dermal fibroblasts; assay type: cell-based; conditions: for collagen production (collagen levels secreted into the media): HDF treated at 1 mM, result in words
Experimental: (§1) The collagen protein levels in the conditioned media were evaluated using the Sircol™ Collagen Assay (Biocolor, Antrim, UK) according to the manufacturer's instructions. […] After discarding the media, the cells were washed with 500 μL of phosphate-buffered saline (PBS), then incubated in 1 mL of serum-free media for another 24 hours. A 1.0 mL media sample (either conditioned media or fresh media as a negative control) was transferred to a microcentrifuge tube, mixed with 100 μL of collagen isolation and concentration reagent, and incubated overnight at 4° C. The samples were centrifuged at 13,000×g for 10 minutes at 4° C., and the supernatant was carefully removed using a pipette without disturbing the pellet. Each tube was then added with 500 μL of Sircol dye reagent, inverted five times, and shaken at room temperature for 30 minutes. After centrifugation, the supernatant was discarded, and the pellet was washed with 500 μL of cold acid-salt washing reagent, followed by another centrifugation step. The pellet was then dissolved in 250 μL of alkali reagent, and a 200 μL portion was transferred to a 96-well plate. The optical density of the solution was read at 555 nm using a Spectrostar Nano microplate reader (BMG LABTECH GmbH, Ortenberg, Germany).

human dermal fibroblasts = test: Wound healing (wound closure) assay, Oris cell migration kit; assay type: cell-based; conditions: HDF
Experimental: Wound closure analysis was performed using the Oris™ Universal Cell Migration Assembly kit (Platinus Technologies, WI, USA) according to the manufacturer's instructions. The Oris™ stoppers were inserted into each well of the Oris™-compatible 96-well plate, and the plate was inverted to check for complete stopper attachment. A suspension of human dermal fibroblasts in IMDM was added to each well (1×10^4 cells in 100 μL per well) and incubated for 12 hours to allow cell attachment. Then, the stoppers were removed using the stopper tool, and the medium was aspirated using a pipette. The wells were gently washed with 100 μL PBS to remove unattached cells, and the attached cells were treated with drugs in 100 μL culture medium for the specified time, respectively. Images of the wounds were obtained using a phase-contrast microscope (Eclipse TS 100, Nikon Instruments Inc., Melville, NY, USA). The wound areas in the images were quantified using the NIH Image J program. Wound closure (%) was calculated using the following equation: Wound closure (%)=[(A0−At)/A0]×100, where A0 is the area of the original wound and At is the wound area measured at the specified time.

[2] = test system: Human dermal fibroblasts (HDF); conditions: 48 h
Experimental: (§2) Human dermal fibroblasts (HDF) extracted from adult skin were obtained from Cascade Biologics (Portland, OR, USA), and human articular chondrocytes (HAC), human follicle dermal papilla cells (HFCPC), human aortic endothelial cells (HAoEC), and human osteoblasts (HOB) were obtained from PromoCell (Heidelberg, Germany). The cells were cultured in a closed incubator at 37° C. in humidified air comprising 5% CO2. The growth medium for HDF consisted of Iscove's Modified Dulbecco's Medium (IMDM) (Gibco BRL, Grand Island, NY, USA) supplemented with 10% fetal bovine serum (Hyclone, South Logan, UT) and 1% antibiotics (100 U·mL^−1 penicillin, 0.1 mg·mL^−1 streptomycin).
(§3) The cell viability was evaluated using the MTT assay. Briefly, HDF (1×10^4 cells per well), HAC (5×10^3 cells per well), HFDPC (1×10^4 cells per well), HAoEC (5×10^3 cells per well), and HOB (2×10^3 cells per well) were cultured in growth media in a 96-well culture plate for 24 hours, followed by treatment with each drug for 48 hours. After discarding the media, the cells were incubated at 37° C. for 2 hours in fresh growth media (100 μL) containing 1 mg·mL^−1 MTT (Amresco, Solon, OH, USA). The media was removed by aspiration, and the formazan dye accumulated inside the cells was dissolved in 100 μL of dimethyl sulfoxide. The absorbance of the solution was measured at 570 nm using a Spetrostar Nano microplate reader (BMG LABTECH GmbH, Ortenberg, Germany).

[3] = test system: human articular chondrocytes (HAC); test: Collagen protein (Sircol Collagen Assay) in human articular chondrocytes; assay type: cell-based; conditions: for increase in collagen production compared to the control: absence of TGF-β1
Experimental: as §1

[4] = test system: human articular chondrocytes (HAC); test: Cell viability / proliferation (MTT assay) in human articular chondrocytes; assay type: cell-based; conditions: for cell viability compared to the control group: concentration series (FIGS. 13g to 13l)
Experimental: The cell viability was evaluated using the MTT assay.

[5] = test system: Human dermal fibroblasts (HDF); test: Cell viability / proliferation (MTT assay) in human dermal fibroblasts; conditions: for cell proliferation (MTT reduction): concentration series (FIGS. 13a to 13f)
Experimental: as §2, §3

[6] = test system: human follicle dermal papilla cells (HFCPC); test: Collagen protein (Sircol Collagen Assay) in human follicle dermal papilla cells; assay type: cell-based; conditions: 1 mM
Experimental: as §1

[7] = test system: human aortic endothelial cells (HAoEC); test: Collagen protein (Sircol Collagen Assay) in human aortic endothelial cells; assay type: cell-based; conditions: 1 mM
Experimental: as §1

human osteoblasts (HOB) = test: Collagen protein (Sircol Collagen Assay) in human osteoblasts; assay type: cell-based; conditions: 1 mM
Experimental: as §1

[8] = HDF, 1 mM each, absence of TGF-β1 (FIG. 5a)
[9] = HDF, concentration series (FIGS. 13a to 13f)

In the case of `O=C1O[C@H]([C@@H](O)CO)C(O)=C1O` [ascorbic acid, reference compound], the “collagen production (collagen levels secreted into the media)” value [1] is reported as “increased collagen production”, the “increase in collagen production compared to the control” value [1, 8] is reported as 23.1% and the collagen production ([1]; HDF, 3 and 5 mM) is reported as “significantly reduced”. For the same molecule, the “concentrations at which collagen production increased” value ([1]; HDF, non-cytotoxic concentrations (FIG. 10b)) was 10 to 1000 µM, the “change in wound closure induced by treatment” value (“change … by treatment” below) (human dermal fibroblasts; 24 hours after treatment) was 9.1% and the “change … by treatment” value (human dermal fibroblasts; after 12 hours of treatment) was 2.5%. The “concentrations with no effect on cell viability” value (shortened to “concentrations with no effect”) [2] was ≤ 1000 µM.

For `C[C@H]1[C@H](C)CC[C@]2(C(=O)O)CC[C@]3(C)C(=CC[C@@H]4[C@@]5(C)C[C@@H](O)[C@H](O)[C@@](C)(CO)[C@@H]5CC[C@]43C)[C@H]12` [asiatic acid], the collagen production ([1]; HDF, 10 μM) was “decreased”, the “concentrations that reduced cell viability” value [2] was “above 300 μM” and the “concentrations with no effect” value [2] was “below 100 μM”.

With `Cl.N[C@H]1C(O)O[C@H](CO)[C@@H](O)[C@@H]1O` (stereo partly drawn) [glucosamine, glucosamine HCl, reference compound] the “increase in collagen production compared to the control” value ([1]; HDF, 0.5 mM, absence of TGF-β1) was 118.6%, the collagen production [1, 9] was “increased collagen production” and the collagen production ([3]; 0.5 mM) was “increased collagen production”. For the same molecule, the “increase in collagen production compared to the control” value ([3]; 0.5 mM) was 147.6%, the cell viability ([4]; HAC, 0.5 mM) was “without affecting cell viability” and the “cell proliferation (MTT reduction)” value ([5]; HDF) was “did not affect cell proliferation”.

In the case of `Cl.NCC(N)=O` [glycinamide, Glycinamide HCl], the “collagen production (collagen levels secreted into the media)” value ([1]; HCl) is reported as “most effective; also recorded: highest collagen production-promoting effect”, the “collagen production (collagen levels secreted into the media)” value ([1]; listed as glycylamine, HCl) is reported as “superior collagen-promoting effect compared to all free amino acids” and the “change in collagen production, individual treatment” value ([1]; HDF, 100 μM) is reported as 27.2%. The “increase in collagen production compared to the control” value ([1]; HDF, 0.5 mM, absence of TGF-β1) was 139.2%, the “change in collagen production, individual treatment” value ([1]; HDF, 1000 μM) was 75.7% and the “increase in collagen production compared to the control” value [1, 8] was 68.2%. The “change in collagen production induced by individual treatment” value ([1]; HDF, FIG. 7b, concentration not given) was 67.4%, the collagen production [1, 9] was “increased collagen production in a concentration-dependent manner” and the “change … by treatment” value (human dermal fibroblasts; 24 hours after treatment) was 19.2%. For the same molecule, the “change … by treatment” value (human dermal fibroblasts; after 12 hours of treatment) was 6.3%, the wound closure (human dermal fibroblasts; treated alone, up to 48 hours (FIG. 8b)) was “promoted wound closure” and the collagen production ([3]; 0.5 mM) was “enhancing collagen production”. The “increase in collagen production compared to the control” value ([3]; 0.5 mM) was 181.3%, the collagen production ([3]; 1 mM) was “most effective among the amidated amino acids” and the “increase in collagen production (greatest effect)” value ([3]; 2 mM) was 238.6%. The “cell viability compared to the control group” value ([4]; HAC) was “slightly but significantly increased cell viability”, the collagen production [6] was “most effective among the amidated amino acids” and the collagen production [7] was “most effective among the amidated amino acids”. For the same molecule, the collagen production (human osteoblasts (HOB)) was “most effective among the amidated amino acids”, the collagen production effect (human osteoblasts (HOB)) was 433.8% and the cell viability ([5]; HDF treated at 1 mM, result in words) was “no significant change in cell viability”. The “cell proliferation (MTT reduction)” value ([5]; HDF) was “did not affect cell proliferation”.

With `C[C@H]1[C@H](C)CC[C@]2(C(=O)O)CC[C@]3(C)C(=CC[C@@H]4[C@@]5(C)C[C@@H](O)[C@H](O)[C@@](C)(CO)[C@@H]5[C@H](O)C[C@]43C)[C@H]12` [madecassic acid] the collagen production ([1]; HDF, 10 μM) was “decreased”, the “concentrations that reduced cell viability” value [2] was “above 300 μM” and the “concentrations with no effect” value [2] was “below 100 μM”.

For “TGF-β1: Recombinant human TGF-β1 protein purchased from R&D Systems”, the collagen production ([1]; HDF, TGF-β1 10 ng mL^−1 alone) was “effect of enhancing collagen production”, the collagen production [1, 9] was “collagen production enhancement effect that surpassed its cell proliferation effect” and the “wound closure compared to the control” value (human dermal fibroblasts; 12 and 24 hours post-treatment) was “significantly improved wound closure”. The collagen production ([3]; TGF-β1 10 ng mL^−1 alone) was “effect of enhancing collagen production”, the collagen production ([3]; TGF-β1 up to 10 ng mL-1) was “improved collagen production in a dose-dependent manner” and the “cell proliferation compared to the control” value ([4]; HAC (FIGS. 14a to 14d)) was “better cell proliferation compared to the control”. For the same molecule, the “cell viability compared to the control group” value ([4]; HAC) was “slightly but significantly increased cell viability”, the “cell proliferation compared to the control” value ([5]; HDF (FIGS. 14a to 14d)) was “better cell proliferation compared to the control” and the “cell proliferation (MTT reduction)” value ([5]; HDF) was “increased the proliferation”. The “increase in number of viable cells compared to the control” value ([5]; HDF, TGF-β1 10 ng mL^−1, or ascorbic acid 1 mM + glycinamide 1 mM (FIG. 5b)) was 44.5%.
